Data reported in patent publication US20210024507A1, “Compounds” (Step Pharma S.A.S., priority 2018, published 2021).

Key:
human CTPS1 [1] = target: T1, human CTPS1 (Homo sapiens, UniProt P17812); experiment: Human CTPS1 enzyme inhibition (ADP-Glo Max assay); format: biochemical; details: human full length CTPS1, 25° C., read-out: CTPS1 (Human CTPS1 Enzyme Inhibition, IC50 grouped by potency range)
T1 construct: purchased Proteros biostructures GmbH
T1 sequence (P17812 1-591): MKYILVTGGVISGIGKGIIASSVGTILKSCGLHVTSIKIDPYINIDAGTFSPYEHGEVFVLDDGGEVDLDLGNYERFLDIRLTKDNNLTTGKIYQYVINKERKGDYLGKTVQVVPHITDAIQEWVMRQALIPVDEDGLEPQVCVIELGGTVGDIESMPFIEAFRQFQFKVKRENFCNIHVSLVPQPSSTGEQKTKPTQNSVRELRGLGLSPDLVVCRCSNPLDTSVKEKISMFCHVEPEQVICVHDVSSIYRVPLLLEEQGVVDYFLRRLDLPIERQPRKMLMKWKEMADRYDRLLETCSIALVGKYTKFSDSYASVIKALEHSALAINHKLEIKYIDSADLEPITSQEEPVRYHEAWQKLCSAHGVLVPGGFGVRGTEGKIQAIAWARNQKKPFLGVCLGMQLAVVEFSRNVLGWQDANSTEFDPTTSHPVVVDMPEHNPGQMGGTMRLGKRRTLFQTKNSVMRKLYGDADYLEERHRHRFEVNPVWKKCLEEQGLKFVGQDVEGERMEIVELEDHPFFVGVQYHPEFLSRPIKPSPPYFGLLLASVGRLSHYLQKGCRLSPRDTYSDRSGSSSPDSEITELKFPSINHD
Procedure, shortened: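 Full-length C-terminal FLAG-His-tagged CTPS1, preincubated 10 min at 25 °C with compound in 50mM Tris pH 8.0, 10mM MgCl2, 0.01% Tween-20, 2mM L-cysteine. Started with ATP 0.31mM, GTP 0.034mM, UTP 0.48mM, L-glutamine 0.186mM in substrate mix, run within linear phase at 25 °C. ADP via ADP-Glo Max luminescence; IC50 from % inhibition curve.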

human CTPS1 [2] = experiment: RapidFire/MS-based enzyme selectivity assay, human CTPS1; format: biochemical; details: calculated from the CTPS1 and CTPS2 IC50 values
Procedure, shortened: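 Full-length C-terminal FLAG-His-tagged human CTPS1 (1-591) was preincubated 10 minutes at 25° C. with compound in 50 mM HEPES pH 8.0, 20 mM MgCl2, 5 mM KCl, 1 mM DTT and 0.01% Tween-20. Substrate mix contained 0.3 mM ATP, 0.2 mM UTP, 0.07 mM GTP and 0.1 mM L-glutamine, and the reaction ran in its linear phase at 25° C. before formic acid stop. CTP was measured by RapidFire MS relative to ^13C9-^15N3-CTP, and IC50 came from percent inhibition curves.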

| Structure (SMILES) | IC50 (human CTPS1 [1]) [nM] | Selectivity (fold selectivity between CTPS1 and CTPS2) (human CTPS1 [2]) |
| --- | --- | --- |
| CCC(C(=O)Nc1ccc(-c2cncc(OCC(F)(F)F)n2)cc1)c1ccnc(NS(=O)(=O)C2CC2)n1 (stereo not drawn) [P108, 2-(2-(cyclopropanesulfonamido)pyrimidin-4-yl)-N-(4-(6-(2,2,2-trifluoroethoxy)pyrazin-2-yl)phenyl)butanamide] | ≤ 100 | +++ (>60 fold (+++)) |
| CCOc1cncc(-c2ccc(NC(=O)C(CCOC)c3ccnc(NS(=O)(=O)C4CC4)n3)cc2)n1 (stereo not drawn) [P110, 2-(2-(cyclopropanesulfonamido)pyrimidin-4-yl)-N-(4-(6-ethoxypyrazin-2-yl)phenyl)-4-methoxybutanamide] | ≤ 100 | ++ (>30-60 fold (++)) |
| CCOc1cncc(-c2ccc(NC(=O)C(CC)c3cccc(NS(=O)(=O)C4CC4)n3)nc2)n1 (stereo not drawn) [P188, 2-(6-(cyclopropanesulfonamido)pyridin-2-yl)-N-(5-(6-ethoxypyrazin-2-yl)pyridin-2-yl)butanamide] | ≤ 100 | ++ (>30-60 fold (++)) |
| CCOc1cncc(-c2ccc(NC(=O)C(CC)c3cccc(NS(=O)(=O)C4CC4)n3)cc2)n1 (stereo not drawn) [P191, 2-(6-(cyclopropanesulfonamido)pyridin-2-yl)-N-(4-(6-ethoxypyrazin-2-yl)phenyl)butanamide] | 100 to 1000 | ++ (>30-60 fold (++)) |
| CCOc1cncc(-c2ccc(NC(=O)C(C)(CCOC)c3cncc(NS(=O)(=O)C4CC4)n3)nc2)n1 (stereo not drawn) [P198, 2-(6-(cyclopropanesulfonamido)pyrazin-2-yl)-N-(5-(6-ethoxypyrazin-2-yl)pyridin-2-yl)-4-methoxy-2-methylbutanamide] | ≤ 100 | +++ (>60 fold (+++)) |
| CCOc1cncc(-c2ccc(NC(=O)C(F)(CC)c3cncc(NS(=O)(=O)C4CC4)n3)nc2)n1 (stereo not drawn) [P200, 2-(6-(cyclopropanesulfonamido)pyrazin-2-yl)-N-(5-(6-ethoxypyrazin-2-yl)pyridin-2-yl)-2-fluorobutanamide] | ≤ 100 | ++ (>30-60 fold (++)) |
| CCOc1cncc(-c2ccc(NC(=O)C(CC)c3cncc(NS(=O)(=O)C4CC4)n3)nc2)n1 (stereo not drawn) [P201, 2-(6-(cyclopropanesulfonamido)pyrazin-2-yl)-N-(5-(6-ethoxypyrazin-2-yl)pyridin-2-yl)butanamide] | ≤ 100 | +++ (>60 fold (+++)) |
| CCOc1cncc(-c2ccc(NC(=O)C(CC)c3cncc(NS(=O)(=O)C4CC4)n3)cc2)n1 (stereo not drawn) [P202, 2-(6-(cyclopropanesulfonamido)pyrazin-2-yl)-N-(4-(6-ethoxypyrazin-2-yl)phenyl)butanamide] | ≤ 100 | +++ (>60 fold (+++)) |
| CCOc1cncc(-c2ccc(C(=O)NC(CC)c3ccnc(NS(=O)(=O)C4CC4)n3)c(F)c2)n1 (stereo not drawn) [P216, N-(1-(2-(cyclopropanesulfonamido)pyrimidin-4-yl)propyl)-4-(6-ethoxypyrazin-2-yl)-2-fluorobenzamide] | ≤ 100 | +++ (>60 fold (+++)) |
